The values below are quoted from earlier work in article PMC8463260 (Acta Pharmaceutica Sinica. B, 2020).

For series [1] the following is noted: in vitro bioactivity compared to native insulin; ref [26],[28]-[31].
The conditions of series [2]: multimerization and serum albumin association; ref [5],[6].

Take insulin degludec: the “in vitro potency, fold lower vs native insulin” value in series [1] is on record as 6–8 fold.
Consider “insulin detemir: long-acting insulin derivative with hydrophobic modification on B29 lysine”, for which the in vivo half-life in series [2] was 20 to 48 h.
